Results on three compounds are retold here after publication PMC8998492 (2022).

One may read the KD as a measure of binding affinity in units of concentration. The low end stands for higher affinity, the high end for lower affinity. What is called ΔTm is the shift of the melting midpoint relative to a reference.

Experiment [1] deals with c-myc promoter i-motif (DNA, i motif) CCCCACCTTCCCCACCCTCCCCACCCTCCCC
Kind of experiment: fluorescent displacement (FID), microplate reader. As to conditions: 100 mM KCl; 1 × BPES; tracer G59 displaced.

For experiment [2], the system named is 5'-biotin c-myc G-quadruplex (DNA, G4) TTGAGGGTGGGTAGGGTGGGTAAA
Description: SPR. The following applies: 100 mM KCl; 20 mM Tris-HCl pH 7.4, 25 °C; DNA immobilised.

Experiment [3] deals with 5'-biotin c-myc (i-motif) (DNA, i motif) CCCCACCTTCCCCACCCTCCCCACCCTCCCC
Description: SPR. The following applies: 100 mM KCl; 20 mM MES pH 5.5, 0.05% Tween-20, 25 °C; DNA immobilised.

Experiment [4] concerns c-myc-C7A (DNA, i motif) CCCCACATTCCCCACCCTCCCCACCCTCCCC
Kind of experiment: fluorescence enhancement. As to conditions: 100 mM KCl; 1 × BPES pH 5.5.

Experiment [5] deals with c-myc-C25T (DNA, i motif) CCCCACCTTCCCCACCCTCCCCACTCTCCCC
Kind of experiment: fluorescence enhancement. The following applies: 100 mM KCl; 1 × BPES pH 5.5.

Experiment [6] deals with c-myc-C16A (DNA, i motif) CCCCACCTTCCCCACACTCCCCACCCTCCCC
Description: fluorescence enhancement. The following applies: 100 mM KCl; 1 × BPES pH 5.5.

Experiment [7] relates to DS26 (DNA, duplex) CAATCGGATCGAATTCGATCCGATTG
Kind of experiment: fluorescence titration. As to conditions: 100 mM KCl; 20 mM Tris-HCl pH 7.4; also unstained in PAGE.

Experiment [8] concerns c-myc promoter i-motif (DNA, i motif) CCCCACCTTCCCCACCCTCCCCACCCTCCCC
Kind of experiment: CD melting. The following applies: 100 mM KCl; 1 × BPES pH 5.5; 2 μM DNA, 10 μM G59; Tm 53.1 to 59.9 °C.

Experiment [9] concerns c-myc-C25G (DNA, i motif) CCCCACCTTCCCCACCCTCCCCACGCTCCCC
Description: fluorescence enhancement. The following applies: 100 mM KCl; 1 × BPES pH 5.5.

For experiment [10], the system named is c-myc-C16T (DNA, i motif) CCCCACCTTCCCCACTCTCCCCACCCTCCCC
Description: fluorescence enhancement. The following applies: 100 mM KCl; 1 × BPES pH 5.5.

Experiment [11] relates to SS26 (DNA, single strand) ATACGATGCTTCACGGTGCTATCTG
Description: fluorescence titration. The following applies: 100 mM KCl; 20 mM Tris-HCl pH 7.4; also unstained in PAGE.

Experiment [12] concerns c-myc-C25A (DNA, i motif) CCCCACCTTCCCCACCCTCCCCACACTCCCC
Kind of experiment: fluorescence enhancement. As to conditions: 100 mM KCl; 1 × BPES pH 5.5.

Experiment [13] deals with c-myc promoter i-motif (DNA, i motif) CCCCACCTTCCCCACCCTCCCCACCCTCCCC
Description: ITC. As to conditions: 100 μM G59 injected into 4 μM DNA; KD = 1/Ka (Ka 5.94×10^5 M-1).

Experiment [14] relates to c-myc-C7T (DNA, i motif) CCCCACTTTCCCCACCCTCCCCACCCTCCCC
Description: fluorescence enhancement. As to conditions: 100 mM KCl; 1 × BPES pH 5.5.

Experiment [15] concerns c-myc promoter i-motif (DNA, i motif) CCCCACCTTCCCCACCCTCCCCACCCTCCCC
Kind of experiment: fluorescence enhancement. As to conditions: 100 mM KCl; 1 × BPES pH 5.5.

Experiment [16] relates to c-myc-C7G (DNA, i motif) CCCCACGTTCCCCACCCTCCCCACCCTCCCC
Description: fluorescence enhancement. The following applies: 100 mM KCl; 1 × BPES pH 5.5.

The test system of experiment [17] is c-myc-C16G (DNA, i motif) CCCCACCTTCCCCACGCTCCCCACCCTCCCC
Kind of experiment: fluorescence enhancement. As to conditions: 100 mM KCl; 1 × BPES pH 5.5.

Experiment [18] deals with c-myc promoter i-motif (DNA, i motif) CCCCACCTTCCCCACCCTCCCCACCCTCCCC
Kind of experiment: fluorescent displacement (FID). The following applies: 100 mM KCl; 1 × BPES pH 5.5; tracer 1 μM G59 displaced, 2 μM DNA; 5 eq (5 μM) 3be.

In the case of `C[C@H]1O[C@@H](O[C@H]2CC[C@@]3(C)[C@@H](CC[C@]4(C)[C@@H]3C=CC3=C5CC(C)(C)CC[C@]5(CO)[C@H](O)C[C@]34C)[C@]2(C)CO)[C@H](O)[C@@H](O[C@@H]2O[C@H](CO)[C@@H](O)[C@H](O)[C@H]2O)[C@H]1O`, in experiment [1], the binding result is listed as “yes”. Moreover, the KD came to 46.2 µM in [2] and 9.52 µM in experiment [3].
As to `O=C1c2cccc3c(-c4ccc5c(c4)c4cc(-c6ccc7c8c(cccc68)C(=O)N(CCN6CCCC6)C7=O)ccc4n5CCN4CCCC4)ccc(c23)C(=O)N1CCN1CCCC1`, the FI/F0 in experiment [4] stood at 13.35; in experiment [5], 17.92; in experiment [6] it was 15.2; in [9] it was 6.59; in [10], 18.23; in [12] it was 17.15. Also, the FI/F0 in [14] is recorded as 18.35; in [15], 17.98; in experiment [16] it was 5.44; in [17] it was 6.03. For the same compound, the binding result in [7] and in experiment [11] was “weak” each time. Moreover, in experiment [8], the ΔTm is 6.8 °C. The compound further gave a KD in [13] of 1.68 µM.
With `c1ccc2c(c1)c1cc(-c3cn(CCN4CCCC4)nn3)ccc1n2CCN1CCCC1`, the relative replacement ratio in [18] amounted to 42.09%.
